Data as given in ChEMBL document CHEMBL1275550, “In vitro activity of doripenem, a carbapenem for the treatment of challenging infections caused by gram-negative bacteria, against recent clinical isolates from the United States” (2008).
Converted amounts (≈) assume the structure as drawn.

Tests used:
Pseudomonas aeruginosa [1] = experiment: Antimicrobial activity against Ceftazidime non-susceptible Pseudomonas aeruginosa by broth microdilution method; format: functional
Serratia marcescens [2] = experiment: Antimicrobial activity against Ceftazidime non-susceptible Serratia marcescens by broth microdilution method; format: functional
Proteus mirabilis [3] = experiment: Antimicrobial activity against Non-ESBL Proteus mirabilis assessed as susceptible isolate by broth microdilution method; format: functional
Klebsiella pneumoniae [4] = experiment: Antimicrobial activity against ESBL producing Klebsiella pneumoniae assessed as susceptible isolate by broth microdilution method; format: functional
Pseudomonas aeruginosa [5] = experiment: Antimicrobial activity against Pseudomonas aeruginosa isolated from patient by broth microdilution method
Pseudomonas aeruginosa [6] = experiment: Antimicrobial activity against imipenem susceptible Pseudomonas aeruginosa by broth microdilution method; format: functional
Pseudomonas aeruginosa [7] = experiment: Antimicrobial activity against Ceftazidime susceptible Pseudomonas aeruginosa assessed as susceptible isolate by broth microdilution method; format: functional
Enterobacteriaceae [8] = experiment: Antimicrobial activity against Ceftazidime non-susceptible Enterobacteriaceae assessed as susceptible isolate by broth microdilution method; format: functional
Enterobacter cloacae [9] = experiment: Antimicrobial activity against Enterobacter cloacae with derepressed AmpC beta-lactamsae assessed as susceptible isolate by broth microdilution method; format: functional
Enterobacteriaceae [10] = experiment: Antimicrobial activity against Ceftazidime non-susceptible Enterobacteriaceae assessed as resistant isolate by broth microdilution method; format: functional
Pseudomonas aeruginosa [11] = experiment: Antimicrobial activity against Ceftazidime susceptible Pseudomonas aeruginosa assessed as intermediate isolate by broth microdilution method; format: functional
Acinetobacter [12] = experiment: Antimicrobial activity against imipenem non-susceptible Acinetobacter assessed as intermediate isolate by broth microdilution method; format: functional
Acinetobacter [13] = experiment: Antimicrobial activity against imipenem non-susceptible Acinetobacter by broth microdilution method; format: functional
Enterobacter cloacae [14] = experiment: Antimicrobial activity against Enterobacter cloacae with nonderepressed AmpC beta-lactamsae by broth microdilution method; format: functional
Escherichia coli [15] = experiment: Antimicrobial activity against ESBL producing Escherichia coli assessed as susceptible isolate by broth microdilution method; format: functional
Klebsiella pneumoniae [16] = experiment: Antimicrobial activity against Non-ESBL Klebsiella pneumoniae by broth microdilution method; format: functional
Enterobacter cloacae [17] = experiment: Antimicrobial activity against Enterobacter cloacae with nonderepressed AmpC beta-lactamsae assessed as susceptible isolate by broth microdilution method; format: functional
Klebsiella pneumoniae [18] = experiment: Antimicrobial activity against Non-ESBL Klebsiella pneumoniae assessed as intermediate isolate by broth microdilution method; format: functional
Serratia marcescens [19] = experiment: Antimicrobial activity against Ceftazidime susceptible Serratia marcescens by broth microdilution method; format: functional
Proteus mirabilis [20] = experiment: Antimicrobial activity against ESBL producing Proteus mirabilis assessed as susceptible isolate by broth microdilution method; format: functional
Acinetobacter [21] = experiment: Antimicrobial activity against imipenem susceptible Acinetobacter assessed as resistant isolate by broth microdilution method; format: functional
Pseudomonas aeruginosa [22] = experiment: Antimicrobial activity against Pseudomonas aeruginosa isolated from non-ICU patient by broth microdilution method
Citrobacter [23] = experiment: Antimicrobial activity against Citrobacter with nonderepressed AmpC beta-lactamsae by broth microdilution method; format: functional
Pseudomonas aeruginosa [24] = experiment: Antimicrobial activity against imipenem non-susceptible Pseudomonas aeruginosa assessed as susceptible isolate by broth microdilution method; format: functional
Escherichia coli [25] = experiment: Antimicrobial activity against ESBL producing Escherichia coli assessed as intermediate isolate by broth microdilution method; format: functional
Acinetobacter [26] = experiment: Antimicrobial activity against imipenem susceptible Acinetobacter assessed as susceptible isolate by broth microdilution method; format: functional
Pseudomonas aeruginosa [27] = experiment: Antimicrobial activity against Pseudomonas aeruginosa isolated from ICU patient by broth microdilution method; format: functional
Escherichia coli [28] = experiment: Antimicrobial activity against ESBL producing Escherichia coli by broth microdilution method; format: functional
Citrobacter [29] = experiment: Antimicrobial activity against Citrobacter with derepressed AmpC beta-lactamsae assessed as intermediate isolate by broth microdilution method; format: functional
Enterobacteriaceae [30] = experiment: Antimicrobial activity against Ceftazidime non-susceptible Enterobacteriaceae by broth microdilution method; format: functional
Citrobacter [31] = experiment: Antimicrobial activity against Citrobacter with nonderepressed AmpC beta-lactamsae assessed as susceptible isolate by broth microdilution method; format: functional
Pseudomonas aeruginosa [32] = experiment: Antimicrobial activity against imipenem non-susceptible Pseudomonas aeruginosa by broth microdilution method; format: functional

SMILES: CC(C)(O/N=C(\C(=O)N[C@@H]1C(=O)N2C(C(=O)[O-])=C(C[n+]3ccccc3)CS[C@H]12)c1csc(N)n1)C(=O)O [CEFTAZIDIME]
- MIC50 (Pseudomonas aeruginosa [1]): 32 µg/mL (≈ 58.5 µM)
- MIC90 (Pseudomonas aeruginosa [1]): > 32 µg/mL
- MIC (Serratia marcescens [2]): > 32 µg/mL
- MIC50 (Serratia marcescens [2]): > 32 µg/mL
- MIC90 (Serratia marcescens [2]): > 32 µg/mL
- Activity (Proteus mirabilis [3]): 99.5%
- Activity (Klebsiella pneumoniae [4]): 4.5%
- Activity (Pseudomonas aeruginosa [5]): 2.3%
- MIC50 (Pseudomonas aeruginosa [6]): 2 µg/mL (≈ 3.66 µM)
- MIC90 (Pseudomonas aeruginosa [6]): 8 µg/mL (≈ 14.6 µM)
- Activity (Pseudomonas aeruginosa [7]): 100%
- Activity (Enterobacteriaceae [8]): 0%
- Activity (Enterobacter cloacae [9]): 1%
- Activity (Enterobacteriaceae [10]): 92.4%
- Activity (Pseudomonas aeruginosa [11]): 0%
- Activity (Acinetobacter [12]): 0%
- MIC50 (Acinetobacter [13]): > 32 µg/mL
- MIC90 (Acinetobacter [13]): > 32 µg/mL
- MIC50 (Enterobacter cloacae [14]): 0.25 µg/mL (≈ 0.457 µM)
- MIC90 (Enterobacter cloacae [14]): 2 µg/mL (≈ 3.66 µM)
- Activity (Escherichia coli [15]): 33.3%
- MIC50 (Klebsiella pneumoniae [16]): 0.12 µg/mL (≈ 0.22 µM)
- MIC90 (Klebsiella pneumoniae [16]): 0.5 µg/mL (≈ 0.915 µM)
- Activity (Enterobacter cloacae [17]): 93.6%
- Activity (Klebsiella pneumoniae [18]): 0.3%
- MIC50 (Serratia marcescens [19]): 0.12 µg/mL (≈ 0.22 µM)
- MIC90 (Serratia marcescens [19]): 0.5 µg/mL (≈ 0.915 µM)
- Activity (Proteus mirabilis [20]): 50%
- Activity (Acinetobacter [21]): 27.7%
- Activity (Pseudomonas aeruginosa [22]): 87.3%
- MIC50 (Citrobacter [23]): 0.25 µg/mL (≈ 0.457 µM)
- MIC90 (Citrobacter [23]): 1 µg/mL (≈ 1.83 µM)
- Activity (Pseudomonas aeruginosa [24]): 76.3%
- Activity (Escherichia coli [25]): 10%
- Activity (Acinetobacter [26]): 66.8%
- MIC50 (Pseudomonas aeruginosa [27]): 2 µg/mL (≈ 3.66 µM)
- MIC90 (Pseudomonas aeruginosa [27]): 32 µg/mL (≈ 58.5 µM)
- MIC50 (Escherichia coli [28]): 32 µg/mL (≈ 58.5 µM)
- MIC90 (Escherichia coli [28]): > 32 µg/mL
- Activity (Citrobacter [29]): 0%
- MIC50 (Enterobacteriaceae [30]): > 32 µg/mL
- MIC90 (Enterobacteriaceae [30]): > 32 µg/mL
- Activity (Citrobacter [31]): 98.3%
- MIC50 (Pseudomonas aeruginosa [32]): 4 µg/mL (≈ 7.32 µM)
- MIC90 (Pseudomonas aeruginosa [32]): > 32 µg/mL
